Experimental data taken from patent US20250255795A1, “CYCLIC PEROXIDE, OXIDATION REACTION PRODUCT, METHOD FOR PRODUCING OXIDATION REACTION PRODUCT, AND APPLICATIONS OF THESE” (MEDIPLUS PHARMA, INC., priority 2021, published 2025).
Blank lines part the entries; values can stand above or below the compound they belong to.

What was measured:
[1] = target: T1, TRPM2 (Homo sapiens, UniProt O94759); test: TRP channel activation, intracellular Ca2+ in TRPM2 (expressing cells); type: cell-based
T1 construct: expressed in transfected cells
T1 sequence (O94759 whole entry): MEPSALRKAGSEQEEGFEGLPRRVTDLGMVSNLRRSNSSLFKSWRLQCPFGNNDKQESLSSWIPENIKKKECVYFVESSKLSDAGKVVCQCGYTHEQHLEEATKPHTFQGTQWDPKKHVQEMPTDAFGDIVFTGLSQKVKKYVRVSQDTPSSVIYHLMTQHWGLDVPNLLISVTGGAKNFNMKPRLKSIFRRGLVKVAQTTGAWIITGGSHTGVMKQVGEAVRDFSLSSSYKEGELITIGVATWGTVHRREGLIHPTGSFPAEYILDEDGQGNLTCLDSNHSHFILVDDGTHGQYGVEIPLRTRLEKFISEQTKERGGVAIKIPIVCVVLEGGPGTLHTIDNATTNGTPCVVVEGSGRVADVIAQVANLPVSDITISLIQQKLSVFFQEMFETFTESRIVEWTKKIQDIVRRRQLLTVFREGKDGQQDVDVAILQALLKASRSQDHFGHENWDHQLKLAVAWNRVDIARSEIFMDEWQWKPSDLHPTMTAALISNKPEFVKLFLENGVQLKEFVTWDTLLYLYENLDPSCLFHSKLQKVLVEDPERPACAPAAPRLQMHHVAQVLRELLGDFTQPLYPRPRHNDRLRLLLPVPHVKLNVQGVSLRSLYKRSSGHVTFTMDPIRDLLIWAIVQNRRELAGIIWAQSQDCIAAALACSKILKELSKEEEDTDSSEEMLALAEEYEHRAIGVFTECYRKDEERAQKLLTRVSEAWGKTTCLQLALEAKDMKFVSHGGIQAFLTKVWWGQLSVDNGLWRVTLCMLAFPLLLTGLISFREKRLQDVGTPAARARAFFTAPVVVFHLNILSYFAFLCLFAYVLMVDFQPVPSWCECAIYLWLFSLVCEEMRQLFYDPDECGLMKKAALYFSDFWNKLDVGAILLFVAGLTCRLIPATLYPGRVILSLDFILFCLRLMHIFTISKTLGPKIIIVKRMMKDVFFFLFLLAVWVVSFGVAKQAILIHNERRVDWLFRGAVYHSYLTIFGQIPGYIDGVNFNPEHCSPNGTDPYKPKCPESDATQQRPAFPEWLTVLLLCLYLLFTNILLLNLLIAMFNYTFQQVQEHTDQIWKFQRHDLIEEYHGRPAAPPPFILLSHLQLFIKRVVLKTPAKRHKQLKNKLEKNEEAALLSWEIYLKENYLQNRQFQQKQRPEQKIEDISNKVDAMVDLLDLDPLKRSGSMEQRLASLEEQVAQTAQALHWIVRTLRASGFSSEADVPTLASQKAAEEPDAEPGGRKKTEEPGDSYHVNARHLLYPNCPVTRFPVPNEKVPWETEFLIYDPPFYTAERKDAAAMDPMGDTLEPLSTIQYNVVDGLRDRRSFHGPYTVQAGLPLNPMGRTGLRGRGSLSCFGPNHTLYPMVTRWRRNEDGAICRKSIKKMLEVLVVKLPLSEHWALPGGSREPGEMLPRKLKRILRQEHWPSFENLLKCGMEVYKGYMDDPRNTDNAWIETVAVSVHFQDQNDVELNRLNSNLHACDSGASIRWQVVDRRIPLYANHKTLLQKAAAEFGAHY
From the text: The TLC1 spot product produced in “(1) Production of Oxidation Reaction Product Containing Cyclic Peroxide According to the First Mode of the Present Invention” was directly used without separation (purification) to examine the TRP channel activation. Hereinafter, […]. Hereinafter, “OG” indicates a product formed by ozone-oxidizing glycerin with an oxygen generator (ozonized glycerin). In production of “OG”, the ozone oxidation of glycerin with an oxygen generator was performed with use of a gas having an ozone concentration of approximately 37000 ppm, which had been obtained through a process in which a high concentration of oxygen (oxygen concentration: 70% or more) was given to air with an oxygen generator and the oxygen was ozonized via an ozone generator, under Conditions A below. Hereinafter, “LOG” indicates a product formed by further oxidizing “OG”. Production of “LOG” by oxidation of “OG” was performed with use of a gas having an ozone concentration of approximately 37000 ppm, which had been obtained through a process in which oxygen from an oxygen tank (oxygen concentration: 99% or more) was ozonized via an ozone generator, under Conditions B below. […]

[2] = positive control, known activity; cited from earlier work
[3] = tested on: melanin in skin; test: whitening action, melanin measurement (Mexameter MX18) on half-face application; type: in vivo, human; conditions: inferred from loss of activity after heat treatment of ozonized glycerin
Protocol: Forty-eight healthy individuals (females, 41 years or older and 59 years or younger) participated as test subjects. The test subjects were well informed with description documents (including a consent form) in advance, and a written consent was acquired from each test subject.
For examination of the whitening action, a test product of Example 2-1A, a test product of Example 2-1B, a test product of Reference Example 2-1A, and a test product of Reference Example 2-1B were prepared.
The test subjects were divided into two groups below (24 test subjects in each group). Each test subject took two pushes (approximately 1 ml) of a test product on the hands and applied the test product to a specified half of the face after every face washing performed twice per day (morning and night). […]
Each test subject was subjected to quintuple melanin measurement for freckle sites in the left and right cheeks on the day of initiation of application of test products (week 0) and 4 weeks and 8 weeks after the initiation of application. […] In addition, the changes of melanin measurement values from those at the initiation of the test were determined. Statistical test was carried out with Student t-test, and cases with p<0.05 were determined to be significant differences. […]

[4] = general statement; cited from earlier work

TRP channel activation (net intracellular Ca2+ increase rates) ([1]; 10% by mass aqueous solution, FIG. 1-24): high TRP channel activation
SMILES: OCC(O)CO [G, glycerin]
TRP channel activation (net intracellular Ca2+ increase rates) ([1]; concentrations (% by mass) of the aqueous solutions changed, FIG. 1-25): higher TRP channel activation at high concentrations

SMILES: O=C(C[n+]1ccsc1)c1ccccc1.[Br-] [PTB, N-phenacylthiazolium bromide]
cleavage activity to crosslinking structures formed by AGEs [2]: known to have cleavage activity to crosslinking structures formed by AGEs

SMILES: OCC(O)C1OOCOCC1O (single isomer, unassigned) [compound of the chemical formula (1)]
whitening action (inferred active ingredient) [3]: active ingredient responsible for the whitening action

SMILES: C[C@@H]1CC[C@H]2[C@@H](C)C(=O)O[C@@H]3O[C@@]4(C)CC[C@@H]1[C@]32OO4 [artemisinin]
water solubility and liposolubility [4]: neither water-soluble nor liposoluble
